From patent US20090137652A1, “METHODS FOR NEUROPROTECTION” (priority 2005, published 2009)

Experiments:
[1] = system: rats subjected to Li-pilo induced SE; test: Latency to and frequency of spontaneous recurrent seizures (SRS), lithium-pilocarpine model (Example 1); format: in vivo, rat; conditions: for frequency of stage IV-V SRS: significantly reduced vs pilo-DZP
Method: All rats received lithium chloride (3 meq/kg, i.p., Sigma, St Louis, Mo., U.S.A.); about 20 h later, animals were placed into plexiglas boxes, in order to record baseline cortical EEG. Methylscopolamine bromide (1 mg/kg, s.c., Sigma) was administered to limit the peripheral effects of the convulsant. SE was induced by injecting pilocarpine hydrochloride (25 mg/kg, s.c., Sigma) 30 min after methyl-scopolamine. The bilateral EEG cortical activity was recorded during the whole duration of SE and behavioral changes were noted.
The effects of increasing doses of the test compound were studied on 3 groups of rats. The animals of the first group received 10 mg/kg of the test compound, i.p., 1 h after the onset of SE (pilo-TC10) while the animals of groups 2 and 3 received 30 and 60 mg/kg of the test compound (pilo-TC30 and pilo-TC60), respectively.
Another group was injected with 2 mg/kg diazepam (DZP, i.m.) at 1 h after the onset of SE. This is a standard treatment to improve animals survival after SE (pilo-DZP). The control group received saline instead of pilocarpine and the test compound (saline-saline). The pilo-test compound rats surviving SE were then injected about 10 h after the first test compound injection with a second i.p. injection of the same dose of the test compound and were maintained under a twice daily treatment with the test compound for 6 additional days. Pilo-DZP received a second injection of 1 mg/kg DZP on the day of SE at about 10 h after the first one. Thereafter, Pilo-DZP and saline-saline rats received twice daily an equivalent volume of saline.
The effects of the test compound on the EEG and on the latency to occurrence of SRS were investigated by daily video recording of the animals for 10 h per day and the recording of the electrographic activity twice a week for 8 h.
To calculate the frequency of SRS in pilocarpine-exposed rats, the seizure severity and distinguished stage III (clonic seizures of facial muscles and anterior limbs) and stage IV-V seizures (rearing and falling) was considered. The frequency of stage III SRS per week in pilo-DZP and pilo-test compound rats was variable amongst the groups. It was low, constant in the pilo-DZP and pilo-TC60 (with early SRS onset) groups during the first 3 weeks and had disappeared during the 4th week in the pilo-DZP group. […] The frequency of more severe stage IV-V SRS was highest during the first week in most groups, except pilo-TC30 and TC60 with late seizure onset where the SRS frequency was constant over the whole 4 weeks in TC30 group and over the first two weeks in the pilo-TC60 group with late SRS onset in which no stage IV-V seizures where no seizures recorded after the second week.

[2] = system: rats subjected to li-pilo SE; test: Quantification of cell densities 14 days after lithium-pilocarpine SE (Example 2); format: in vivo, rat; conditions: 14 days after SE
Method: All rats received lithium chloride (3 meq/kg, i.p., Sigma, St Louis, Mo., U.S.A.) and about 20 h later, all animals received also methylscopolamine bromide (1 mg/kg, s.c., Sigma) that was administered to limit the peripheral effects of the convulsant. SE was induced by injecting pilocarpine hydrochloride (25 mg/kg, s.c., Sigma) 30 min after methylscopolamine. The effects of increasing doses of TC (RWJ) were studied in 5 groups of rats. […] The control group received vehicle instead of pilocarpine and TC.
At the moment, neuronal counting is still in progress in the second group of animals studied for epileptogenesis and long-term counting and the data concerning that part of the study will not be included in the present report. For neuronal counting, animals were deeply anesthetized with […] pentobarbital (Dolethal®, Vetoquinol, Lure, France). Brains were then removed and frozen. Serial 20 μm slices were cut in a cryostat, air-dried during several days before thionine staining. […] The grid of counting was placed on a well defined area of the cerebral structure of interest and counting was carried out with a microscopic enlargement of 200- or 400-fold defined for each single cerebral structure. Cell counts were performed twice on each side of three adjacent sections for each region by a single observer unaware of the animal's treatment. The number of cells obtained in the 12 counted fields in each cerebral structure was averaged. This procedure was used to minimize the potential errors that could result from double counting leading to overestimation of cell numbers. […] Counts involved only neurons with cell bodies larger than 10 μm. Cells with small cell bodies were considered as glial cells and were not counted.
For neuronal damage and epileptogenesis, statistical analysis between groups was performed by means of a one-way analysis of variance followed by a post-hoc Dunnett or Fisher test using the Statistica software.

NC(=O)OC[C@@H](O)c1ccccc1Cl [Formula 7]
mean delay to becoming epileptic relative to the other groups of animals ([1]; TC 60 mg/kg, subgroup of animals with delayed SRS): about 9 fold | rats in which occurrence of spontaneous seizures was delayed ([1]; TC 60 mg/kg, 4 out of 11): 36% | frequency of stage IV-V SRS ([1]; TC10, TC30 and TC60 (with early SRS onset) groups, first week): 2.3-6.1 SRS per week | absence of epilepsy ([1]; TC60 (60 mg/kg)): one rat did not become epileptic in a delay of 9 months post-SE | latency to SRS ([1]; TC60 (60 mg/kg), subgroup with latency similar to other groups, n=7): 17.6 ± 8.7 days | latency to SRS ([1]; TC60 (60 mg/kg), subgroup with much longer delay, mean, n=4): 149.8 ± 36.0 days | latency to SRS ([1]; pilo-TC10 (10 mg/kg, 7-day treatment), n=7): 15.4 ± 5.1 days | frequency of stage III SRS ([1]; pilo-TC10, weeks 3 and 4): significantly increased over pilo-DZP values | latency to SRS ([1]; pilo-TC30 (30 mg/kg, 7-day treatment), n=10): 18.9 ± 9.0 days | frequency of stage IV-V SRS ([1]; pilo-TC60 group with early SRS onset, weeks 2-4): 0.6-0.9 seizure per week | neuronal drop out, layer II of the dorsal piriform cortex ([2]; TC 60 mg/kg, significant vs DZP): 25% | damage remaining, ventral entorhinal cortex layer II ([2]; TC 90 mg/kg): 4% | damage remaining, ventral entorhinal cortex layers III/IV ([2]; TC 90 mg/kg): 17% | neuronal density as % of control levels, piriform cortex ([2]; TC 120 mg/kg): 78-96% | neurons surviving, all parts of the entorhinal cortex ([2]; TC 120 mg/kg): 85-94% | cell loss, CA1 pyramidal cell layer ([2]; TC30, 60 or 90 rats, significant vs DZP): 36-47% | neuronal loss, hilus of the dentate gyrus ([2]; TC120 group, not significant vs DZP): 53% | cell loss, CA1 pyramidal cell layer ([2]; TC120 group, significant vs DZP): 12% | neuronal drop out, thalamic nuclei ([2]; TC120 rats): 4-19% | number of neurons as % of the control level, all amygdala nuclei ([2]; TC highest dose (120 mg/kg)): 86-99% | number of neuronal cell bodies, Amygdala, Basolateral ([2]; pilo-TC30 (30 mg/kg), n = 8): 27.3 ± 4.9**° | number of neuronal cell bodies, Amygdala, Medial, dorsal anterior ([2]; pilo-TC30 (30 mg/kg), n = 8): 46.8 ± 5.0 | number of neuronal cell bodies, Amygdala, Medial, ventral posterior ([2]; pilo-TC30 (30 mg/kg), n = 8): 22.3 ± 1.8 | number of neuronal cell bodies, Cerebral cortex, Entorhinal, layer II, dorsal ([2]; pilo-TC30 (30 mg/kg), n = 8): 23.4 ± 0.6 | number of neuronal cell bodies, Cerebral cortex, Entorhinal, layer II, ventral ([2]; pilo-TC30 (30 mg/kg), n = 8): 22.7 ± 0.9 | number of neuronal cell bodies, Cerebral cortex, Entorhinal, layer III/IV, dorsal ([2]; pilo-TC30 (30 mg/kg), n = 8): 22.3 ± 0.5 | number of neuronal cell bodies, Cerebral cortex, Entorhinal, layer III/IV, ventral ([2]; pilo-TC30 (30 mg/kg), n = 8): 13.2 ± 1.9 | number of neuronal cell bodies, Cerebral cortex, Piriform, layer II, dorsal ([2]; pilo-TC30 (30 mg/kg), n = 8): 15.7 ± 2.9 | number of neuronal cell bodies, Cerebral cortex, Piriform, layer II, ventral ([2]; pilo-TC30 (30 mg/kg), n = 8): 7.2 ± 3.8 | number of neuronal cell bodies, Cerebral cortex, Piriform, layer III ([2]; pilo-TC30 (30 mg/kg), n = 8): 1.8 ± 1.8 | number of neuronal cell bodies, Hippocampus, CA1 area ([2]; pilo-TC30 (30 mg/kg), n = 8): 39.3 ± 4.4**°° | number of neuronal cell bodies, Hippocampus, CA3 area ([2]; pilo-TC30 (30 mg/kg), n = 8): 35.7 ± 1.8 | number of neuronal cell bodies, Hippocampus, Hilus ([2]; pilo-TC30 (30 mg/kg), n = 8): 33.0 ± 3.2 | number of neuronal cell bodies, Thalamus, Central medial ([2]; pilo-TC30 (30 mg/kg), n = 8): 75.6 ± 7.7 | number of neuronal cell bodies, Thalamus, Dorsolateral, medial, dorsal ([2]; pilo-TC30 (30 mg/kg), n = 8): 64.2 ± 9.3**°° | number of neuronal cell bodies, Thalamus, Dorsolateral, ventral lateral ([2]; pilo-TC30 (30 mg/kg), n = 8): 8.8 ± 2.8 | number of neuronal cell bodies, Thalamus, Mediodorsal central ([2]; pilo-TC30 (30 mg/kg), n = 8): 26.9 ± 0.6 | number of neuronal cell bodies, Thalamus, Mediodorsal lateral ([2]; pilo-TC30 (30 mg/kg), n = 8): 20.5 ± 0.7 | number of neuronal cell bodies, Thalamus, Mediodorsal medial ([2]; pilo-TC30 (30 mg/kg), n = 8): 11.5 ± 2.5 | number of neuronal cell bodies, Amygdala, Basolateral ([2]; pilo-TC60 (60 mg/kg), n = 11): 27.8 ± 4.3**°° | number of neuronal cell bodies, Amygdala, Medial, dorsal anterior ([2]; pilo-TC60 (60 mg/kg), n = 11): 58.4 ± 2.8**° | number of neuronal cell bodies, Amygdala, Medial, ventral posterior ([2]; pilo-TC60 (60 mg/kg), n = 11): 26.2 ± 2.9 | number of neuronal cell bodies, Cerebral cortex, Entorhinal, layer II, dorsal ([2]; pilo-TC60 (60 mg/kg), n = 11): 23.9 ± 0.5 | number of neuronal cell bodies, Cerebral cortex, Entorhinal, layer II, ventral ([2]; pilo-TC60 (60 mg/kg), n = 11): 23.3 ± 0.8 | number of neuronal cell bodies, Cerebral cortex, Entorhinal, layer III/IV, dorsal ([2]; pilo-TC60 (60 mg/kg), n = 11): 23.2 ± 0.8 | number of neuronal cell bodies, Cerebral cortex, Entorhinal, layer III/IV, ventral ([2]; pilo-TC60 (60 mg/kg), n = 11): 16.5 ± 2.2 | number of neuronal cell bodies, Cerebral cortex, Piriform, layer II, dorsal ([2]; pilo-TC60 (60 mg/kg), n = 11): 27.5 ± 2.8**°° | number of neuronal cell bodies, Cerebral cortex, Piriform, layer II, ventral ([2]; pilo-TC60 (60 mg/kg), n = 11): 13.7 ± 4.2
